Results taken from the OPERA property sets (Mansouri et al. 2018).
Non-standard residues stand in square brackets, D forms with d. Residues, ends and D or L forms follow the SMILES beside them.

Row | Compound | logP
1 | CNc1nc(C)c(C(=O)CCN2CCCC2)s1 | 1.86
2 | CCOP(=O)(OCC)SCS(=O)(=O)C(C)(C)C | 2.76
3 | Nc1ccc(Cl)cc1Cl | 2.78
4 | OC(CN1C2CCCCCC21)Cn1ccnc1 (stereo not given) | 1.44
5 | NC(=O)NCCCCCCn1nc(-c2ccccc2)ccc1=O | 1.82
6 | O=[N+]([O-])c1ccc(Oc2ccc(Cl)cc2Cl)cc1 | 4.64
7 | ClC(Cl)Br | 2
8 | CCOCCOCCOP(=O)(N1CC1)N1CC1 | 0.1
9 | CC(=O)NC1=NC(=O)C(=Cc2ccc([N+](=O)[O-])o2)S1 | 1.03
10 | CCn1cc(C(=O)O)c(=O)c2cc3c(cc21)OCO3 | 0.94
11 | CCCCCCC(=O)N(C)c1ccc(S(=O)(=O)N(C)C)cc1 | 2.61
12 | Nc1cccc(C(=O)O)c1 | 0.65
13 | CC(C)(C)C(COc1ccc([N+](=O)[O-])cc1)OC(=O)n1ccnc1 (stereo not given) | 3.35
14 | Cc1ccc2nccc(=O)n2c1 | 0.61
15 | NCC(O)c1ccc(O)cc1 (stereo not given) | -0.9
16 | CC(=O)O[C@H]1[C@@H](OC(C)=O)C[C@H](O[C@@H]2C(C)O[C@@H](O[C@H]3[C@@H](OC(C)=O)C[C@H](O[C@H]4CC[C@@]5(C)[C@H](CC[C@@H]6[C@@H]5CC[C@]5(C)[C@@H](C7=CC(=O)OC7)[C@@H](OC(C)=O)C[C@]65O)C4)O[C@@H]3C)C[C@@H]2OC(C)=O)O[C@@H]1C (stereo not given in full) | 3.46
17 | CCNC1C2CCC(C2)C1c1ccccc1 (stereo not given) | 3.2
18 | CCOCCCn1ccc(=O)c(O)c1CC | 0.72
19 | Nc1ccc(S(=O)(=O)N2C(=O)NC(=O)C2(c2ccccc2)c2ccccc2)cc1 | 3.27
20 | Cc1c(C(C)C)c(=O)n(-c2ccccc2)n1C | 1.94
21 | O=c1[nH]c(=O)n(-c2ccc(Cl)cc2Cl)cc1F | 1.96
22 | C=C1C(=O)OC2CC3=CC(CC4(C)OC4C(O)C12)OC3=O (stereo not given) | -0.64
23 | O=C1C[N+]([O-])=C(c2ccccc2)c2cc(Cl)ccc2N1CCO | 0.82

Row | Compound | logP
24 | CNC12CC=CCC1c1ccccc1C2 (stereo not given) | 3.28
25 | Nc1cc(Cl)ccc1Cl | 2.75
26 | CCOc1cccc(-c2nnc(C)n(NC)c2=O)c1 | 1.91
27 | Cc1cc(O)c(N)nn1 | -0.85
28 | CCOC(=O)NC1=NCC(c2cccc(F)c2)N1C (stereo not given) | 1.84
29 | CCCN1Cn2c(nc3ccccc3c2=O)C1C (stereo not given) | 1.4
30 | CC(=O)n1cc(CC(NC(=O)CC2NC(=O)C3C4CCC(CC4)N3C2=O)C(=O)NC(Cc2ccccc2)C(=O)N(C)Cc2ccccc2)c2ccccc21 (stereo not given) | 3.69
31 | O=C(O)c1cc([N+](=O)[O-])cc([N+](=O)[O-])c1O | 1.71
32 | N#CCCO | -0.94
33 | COc1cc(C(N)=O)ccc1-c1nc2ccncc2[nH]1 | 1.18
34 | CC(=O)NCc1ccc(OCC(O)CNC(C)C)cc1 (stereo not given) | 0.32
35 | O=C(O)Cc1ccc(C(=O)O)cc1 | 1.24
36 | CC(=O)Nc1n[nH]c(C)cc1=O | -0.89
37 | Cn1c(S)nnc(-c2ccc(OC(F)(F)F)c(Cl)c2)c1=O | 3.61
38 | Nc1cc(Cl)c(Cl)cc1Cl | 3.45
39 | CNC(=S)NCCCCC(NC(=O)C(CC(=O)N1CCOCC1)Cc1cccc2ccccc12)C(=O)NC(CC1CCCCC1)C(O)CC(=O)NCCN1CCOCC1 (stereo not given) | 1.68
40 | C[C@@H]1O[C@@H](O[C@@H]2C=C3CC[C@@H]4[C@H](CC[C@]5(C)[C@@H](c6ccc(=O)oc6)CC[C@]45O)[C@@]3(C)CC2)[C@H](O)[C@H](O)[C@H]1O | 2.48
41 | CC(n1ccnc1)C(O)(c1ccc(F)cc1)c1ccc(F)cc1 (stereo not given) | 3.13
42 | CNC=Nc1ccc(C)cc1C | 2.92
43 | CCCC(CC)C(=O)O (stereo not given) | 2.23
44 | CC1c2nc3ccccc3c(=O)n2CN1C (stereo not given) | 0.85
45 | CCOC(=O)n1c(NC(=O)OC)nc2cc(C(=O)c3ccccc3)ccc21 | 2.93
46 | CCN(CC)c1cccc(S(=O)(=O)[O-])c1.[Na+] | -1.6

Row | Compound | logP
47 | Oc1cc(Cl)c(Cl)c(Cl)c1O | 3.71
48 | O=[N+]([O-])c1ccccc1O[C@@H]1O[C@H](CO)[C@@H](O)[C@H](O)[C@H]1O | -0.78
49 | CCOC(=O)C1(c2ccccc2)CCN(C)CC1 | 2.72
50 | Cc1c(O)c(=O)ccn1CCCCO | -0.74
51 | O=C1CNC(=O)N1Cc1ccccc1 | 0.82
52 | CC(C)N(CCC(CCN1CCCCC1)(C(N)=O)c1ccccc1Cl)C(C)C (stereo not given) | 4.78
53 | Clc1cc(Cl)cc(-c2cc(Cl)cc(Cl)c2)c1 | 6.6
54 | CN1C(=O)C(C)(C2=CCCCC2)C(=O)N=C1O (stereo not given) | 1.98
55 | CSc1ccc(OCc2ncc([N+](=O)[O-])n2C)cc1 | 2.5
56 | COc1ncnc(NS(=O)(=O)c2ccc(N)cc2)c1OC | 0.7
57 | Cc1cc(N)ccc1C(=O)O | 1.14
58 | CNC12CCCCC1CCc1ccc(OC)cc12 (stereo not given) | 3.75
59 | CCCCSC(=Nc1cccnc1)SCc1ccc(C(C)(C)C)cc1 | 7
60 | CCC(O)C(CC(C)N(C)C)(c1ccccc1)c1ccccc1 (stereo not given) | 4.27
61 | CC(=O)c1ccc2c(c1)N(CCCN1CCN(CCO)CC1)c1ccccc1S2 | 2.62
62 | Cc1cc(O)ccc1O | 0.91
63 | O=c1c2c(nc3n1CCC3)CCCC2 | 0.83
64 | CNC(=O)NCCCn1nc(-c2ccccc2)ccc1=O | 1.16
65 | C=C[C@H]1CN2CCC1C[C@@H]2[C@@H](O)c1ccnc2ccccc12 (stereo not given in full) | 2.68
66 | CC1(C)S[C@@H]2[C@H](NC(=O)C3(N)CCCCC3)C(=O)N2[C@H]1C(=O)O | 1.31
67 | CCC(C(=O)OCc1ccc(Cl)cc1)C(CO)Cc1cncn1C (stereo not given) | 2.69
68 | CCCCCN(C)C(=O)c1cccc(Oc2ccccc2)c1 | 4.43
69 | CCON1C(=O)CC2(CCCC2)C1=O | 1.26

Row | Compound | logP
70 | CCCc1c(C)nc2ccccn2c1=O | 1.75
71 | CCNC(=O)NCCCn1nc(-c2ccccc2)ccc1=O | 1.68
72 | CCN(C)C(=O)CCn1ccc(=O)c(O)c1C | -0.69
73 | CCC1(CC)C(=O)NCC(C)C1=O (stereo not given) | 0.78
74 | NS(=O)(=O)c1ccc2c(c1)S(=O)(=O)NC(C(Cl)Cl)N2 (stereo not given) | 0.51
75 | CNC12CCCCC1CSc1ccccc12 (stereo not given) | 3.88
76 | Nc1c(Cl)cc(Cl)cc1Cl | 3.52
77 | CN1C(CSCC(F)(F)F)Nc2cc(Cl)c(S(N)(=O)=O)cc2S1(=O)=O (stereo not given) | 1.9
78 | CCN(CC)C(=O)CCn1ccc(=O)c(O)c1C | -0.36
79 | Cc1c(O)c(=O)ccn1CCC(=O)NC(C)C | -0.47
80 | Cc1c(O)ccc(O)c1C | 1.36
81 | CC(=O)OC(CNC(C)C)COc1cccc2ccccc12 (stereo not given) | 4.34
82 | Cc1nnc(C(C)(C)C)c(=O)n1N | 1.03
83 | O=C(O)CCCC(=O)c1ccccc1 | 1.49
84 | CCCc1c2oc(C(=O)O)cc(=O)c2cc2c(=O)cc(C(=O)O)n(CC)c12 | 2.22
85 | CSc1ccc(OCC(OC(=O)n2ccnc2)C(C)(C)C)cc1 (stereo not given) | 4.03
86 | CC(CF)NCC(O)COc1cccc2[nH]c3ccccc3c12 (stereo not given) | 2.81
87 | CCCCCCCCOc1ccc(NC(=O)OCCN2CCOCC2)cc1 | 4.8
88 | OCC1OC(O)C(O)C(O)C1O (stereo not given) | -3.24
89 | Nc1ccc(C(=O)O)c(N)c1 | -0.31
90 | CC1(C)S[C@@H]2[C@H](NC(=O)[C@H](N)c3ccccc3)C(=O)N2[C@H]1C(=O)O | 1.35
91 | CC12CCC(OS(=O)(=O)O)CC1CCC1C2CCC2(C)C(C3=CC(=O)OC3)CCC12O (stereo not given) | -0.14
92 | OC[C@@H](O)[C@@H](O)[C@H](O)[C@@H](O)CO | -2.2

Row | Compound | logP
93 | Cc1ncc(OP(=O)(O)O)c(CO)c1O | -0.64
94 | C=C1C(=O)OC2C1CCC(C)C1(O)CCC(=O)C21C (stereo not given) | 0.83
95 | CCOC(=O)CCCO | 0.43
96 | CCNC(=O)NCCCCn1nc(-c2ccccc2)ccc1=O | 1.83
97 | CC(C)(C)C(COc1ccc(F)cc1)OC(=S)n1ccnc1 (stereo not given) | 4.37
98 | Cc1onc(-c2ccccc2Cl)c1C(=O)NC1C(=O)N2C1S(=O)C(C)(C)C2C(=O)O (stereo not given) | 2
99 | CN[C@@H](C)[C@H](O)c1ccccc1.Cl | -2.45
100 | COC1N(C2CC(F)C(CO)O2)C(=O)NC(=O)C1(C)Cl (stereo not given) | 0.18
101 | CNC(=O)N(C)c1nnc(C(F)(F)F)s1 | 1.85
102 | Clc1ccc(C(c2ccc(Cl)cc2)C(Cl)Cl)cc1 | 6.02
103 | O=C(O)c1cccc(Cl)n1 | 1.5
104 | ClC(Br)Br | 2.16
105 | CCCCc1ccc(OCC(OC(=O)n2ccnc2)C(C)(C)C)cc1 (stereo not given) | 4.97
106 | CC(=O)N[C@H](Cc1ccccc1)C(=O)N[C@H](Cc1ccccc1)C(N)=O (Ac-[dF]-[dF]-NH2) | 1.19
107 | NC(=O)Nc1ccc(C(=O)O)cc1 | 0.73
108 | CCCCCCCOC(=O)c1cc(=O)[nH]c(=O)[nH]1 | 2.15
109 | CC(=O)C1CCC2C3CC(C)C4=CC(=O)CCC4(C)C3C(=O)CC12C (stereo not given) | 2.75
110 | Cc1ccccc1C=O | 2.26
111 | CCC1(c2ccccc2)NC(=O)N(C)C1=O (stereo not given) | 1.69
112 | O=C1NC(Cc2ccccc2)C(=O)N1Cc1ccccc1 (stereo not given) | 2.84
113 | CCCC(=O)N1CCCC1=O | 1.18
114 | CCOC(=O)c1cnc2n(c1=O)C(C)CCC2 (stereo not given) | 0.62
115 | O=[N+]([O-])c1cccc(S(=O)(=O)[O-])c1.[Na+] | -2.61

Row | Compound | logP
116 | CCc1c(O)c(=O)ccn1CC | 0.25
117 | Cc1ccc(Nc2c([N+](=O)[O-])c(C)nn2-c2ccccc2)cc1 | 3.43
118 | COc1c(Cl)cc(Cl)c(O)c1C(=O)NCC1CCCN1CCF (stereo not given) | 3.66
119 | CC(C)(C)C(COc1ccccc1)OC(=O)n1ccnc1 (stereo not given) | 3.58
120 | CCOC(=O)OCn1cc(F)c(=O)[nH]c1=O | -0.04
121 | CN1C(=O)NC(c2ccccc2)(c2ccccc2)C1=O | 2.28
122 | OC[C@@H](O)[C@H]1O[C@@H]2O[C@H](C(Cl)(Cl)Cl)O[C@@H]2[C@H]1O | 1.02
123 | NC1C2CCC1c1ccc(C(F)(F)F)cc1C2 (stereo not given) | 3.54
124 | COC(=O)c1c(C)[nH]c(-c2ccc(Cl)cn2)c1C(=O)OC | 2.7
125 | CCC(CC)COC(N)=O | 1.98
126 | CCc1c(O)c(=O)ccn1C(C)C | 0.73
127 | COCN(C#N)C1CC(OC2CC(O)(C(C)=O)Cc3c(O)c4c(c(O)c32)C(=O)c2c(OC)cccc2C4=O)OC(C)C1O (stereo not given) | 2.64
128 | CC(=O)c1ccc2cc(C(C)C(=O)OCC(N)=O)ccc2c1 (stereo not given) | 2.06
129 | CC(=O)N1c2ccc(C)cc2C2CN(C)CCC21 (stereo not given) | 1.25
130 | CCC12CCN(CC3(O)CC3)C(Cc3ccc(O)cc31)C2(C)C (stereo not given) | 3.82
131 | CC(C)(C)C(COc1ccccc1)OC(=S)n1ccnc1 (stereo not given) | 4.27
132 | Cc1ccc(CC#N)cc1 | 1.67
133 | CCc1[nH]ccc(=O)c1O | 0.05
134 | CCCNC(=O)CCn1ccc(=O)c(O)c1C | -0.4
135 | CC(=O)Nc1ccn(C2OC(CO)C(O)C2O)c(=O)n1 (stereo not given) | -1.35
